In the CheMixHub viscosity set:

Experiment: xn = mol fraction of the nth substance listed

CCCCC(C)CC (stereo unspecified) + C1C[C@@H]2[C@H]3CC[C@H](C3)[C@@H]2C1
viscosity [mPa·s], 100 kPa
Conditions | x2 = 0.0994 | x2 = 0.2004 | x2 = 0.2996 | x2 = 0.4001 | x2 = 0.5008 | x2 = 0.5973 | x2 = 0.6998 | x2 = 0.8016 | x2 = 0.8999
293.15 K | 0.577 | 0.657 | 0.755 | 0.882 | 1.044 | 1.249 | 1.521 | 1.882 | 2.336
298.15 K | 0.547 | 0.62 | 0.708 | 0.824 | 0.971 | 1.154 | 1.399 | 1.722 | 2.125
303.15 K | 0.519 | 0.589 | 0.667 | 0.772 | 0.905 | 1.065 | 1.294 | 1.585 | 1.945
308.15 K | 0.495 | 0.557 | 0.63 | 0.726 | 0.848 | 1 | 1.201 | 1.457 | 1.788
313.15 K | 0.472 | 0.53 | 0.597 | 0.685 | 0.796 | 0.935 | 1.118 | 1.357 | 1.65

[2H]O[2H] + [Cl-].[Li+]
viscosity [mPa·s], 101 kPa
Conditions | x2 = 0.024 | x2 = 0.076 | x2 = 0.141 | x2 = 0.197 | x2 = 0.215
298.15 K | – | 1.712 | 3.692 | – | 8.914
308.15 K | 1.039 | 1.351 | 3.018 | – | 6.744
318.15 K | 0.854 | 1.112 | 2.397 | 4.216 | 5.422

CCCCC(C)O (stereo unspecified) + CCO
298.15 K, 101.33 kPa
Conditions | viscosity [mPa·s]
x2 = 0.1065 | 3.783
x2 = 0.2102 | 3.485
x2 = 0.3167 | 3.115
x2 = 0.4096 | 2.827
x2 = 0.5036 | 2.512
x2 = 0.6033 | 2.16
x2 = 0.7079 | 1.836
x2 = 0.8023 | 1.572
x2 = 0.9063 | 1.301

C=CC#N + CCC(=O)c1ccccc1
308.15 K, 101 kPa
Conditions | viscosity [mPa·s]
x2 = 0.1051 | 0.405
x2 = 0.1752 | 0.4545
x2 = 0.2496 | 0.513
x2 = 0.3126 | 0.5731
x2 = 0.4246 | 0.6893
x2 = 0.5385 | 0.8078
x2 = 0.6672 | 0.9571
x2 = 0.8184 | 1.161

CC(=O)CC(C)=O + CCCCO
303.15 K, 101 kPa
Conditions | viscosity [mPa·s]
x1 = 0.0509 | 1.941
x1 = 0.1003 | 1.7
x1 = 0.3007 | 1.142
x1 = 0.5004 | 0.887
x1 = 0.7 | 0.751
x1 = 0.8998 | 0.692
x1 = 0.9504 | 0.678

CCCCN(CCCC)CCCC + C1CCCCC1
viscosity [mPa·s], 101 kPa
Conditions | 303.15 K | 313.15 K
x1 = 0.0103 | 0.8168 | 0.7154
x1 = 0.0216 | 0.816 | 0.7139
x1 = 0.03178 | 0.8153 | 0.7132
x1 = 0.04023 | 0.8141 | 0.7121
x1 = 0.05159 | 0.8132 | 0.7111
x1 = 0.05978 | 0.8121 | 0.7102
x1 = 0.0709 | 0.8113 | 0.709
x1 = 0.0807 | 0.81 | 0.7078
x1 = 0.08607 | 0.8086 | 0.7065
x2 = 0.1133 | 1.125 | –
x2 = 0.1972 | 1.125 | –
x2 = 0.402 | 1.021 | –
x2 = 0.499 | 0.987 | –
x2 = 0.5952 | 0.951 | –
x2 = 0.7042 | 0.911 | –
x2 = 0.8018 | 0.875 | –
x2 = 0.9005 | 0.845 | –

OCCN1CCOCC1 + O
101 kPa
Conditions | viscosity [mPa·s]
303.15 K, x1 = 0.8238 | 30.25
313.15 K, x1 = 0.1126 | 13.55

CCCCN(CCCC)CCCC + CCCCCC
viscosity [mPa·s], 101 kPa
Conditions | x1 = 0.0982 | x1 = 0.1945 | x1 = 0.3994 | x1 = 0.495 | x1 = 0.5384 | x1 = 0.7924 | x1 = 0.903
303.15 K | 0.3305 | 0.3909 | 0.5434 | 0.623 | 0.6623 | 0.923 | 1.05
313.15 K | 0.289 | 0.3449 | 0.4813 | 0.5536 | 0.588 | 0.8088 | 0.91

CCCCOC(=O)c1ccccc1C(=O)OCCCC + CCCCO
303.15 K, 101.33 kPa
Conditions | viscosity [mPa·s]
x1 = 0.1016 | 2.585
x1 = 0.1991 | 3.095
x1 = 0.2997 | 3.757
x1 = 0.4016 | 4.553
x1 = 0.5004 | 5.431
x1 = 0.5969 | 6.463
x1 = 0.6966 | 7.645
x1 = 0.8044 | 9.216
x1 = 0.8662 | 10.27

CC(=O)CC(C)=O + CS(C)=O
303.15 K, 101 kPa
Conditions | viscosity [mPa·s]
x2 = 0.1118 | 0.819
x2 = 0.2207 | 0.9187
x2 = 0.3269 | 1.032
x2 = 0.4303 | 1.117
x2 = 0.5312 | 1.209
x2 = 0.6296 | 1.302
x2 = 0.7256 | 1.427

CN(C)c1ccccc1 + CCCCCO
303.15 K, 101 kPa
Conditions | viscosity [mPa·s]
x1 = 0.0799 | 2.75
x1 = 0.121 | 2.704
x1 = 0.2034 | 2.605
x1 = 0.2784 | 2.506
x1 = 0.3584 | 2.392
x1 = 0.4284 | 2.284
x1 = 0.5047 | 2.158
x1 = 0.5722 | 2.039
x1 = 0.6406 | 1.913
x1 = 0.7103 | 1.777
x1 = 0.781 | 1.635
x1 = 0.8168 | 1.562
x1 = 0.9058 | 1.374

CN(C)c1ccccc1 + CC(C)CO
303.15 K, 101 kPa
Conditions | viscosity [mPa·s]
x1 = 0.0545 | 2.804
x1 = 0.1056 | 2.755
x1 = 0.1875 | 2.663
x1 = 0.2546 | 2.576
x1 = 0.3526 | 2.434
x1 = 0.4278 | 2.316
x1 = 0.5047 | 2.189
x1 = 0.5869 | 2.044
x1 = 0.6514 | 1.926
x1 = 0.7348 | 1.767
x1 = 0.8025 | 1.628
x1 = 0.8621 | 1.501
x1 = 0.9285 | 1.345

CCC(C)(C)O + COc1ccccc1
viscosity [mPa·s], 101.33 kPa
Conditions | x2 = 0.1 | x2 = 0.2 | x2 = 0.2997 | x2 = 0.4001 | x2 = 0.5007 | x2 = 0.5997 | x2 = 0.7012 | x2 = 0.8005 | x2 = 0.9
303.15 K | 2.246 | 1.792 | 1.463 | 1.232 | 1.079 | 0.988 | 0.941 | 0.922 | 0.917
313.15 K | 1.623 | 1.339 | 1.125 | 0.976 | 0.885 | 0.831 | 0.808 | 0.799 | 0.792
323.15 K | 1.206 | 1.023 | 0.885 | 0.798 | 0.751 | 0.73 | 0.719 | 0.709 | 0.697

Cn1ccnc1 + O
viscosity [mPa·s], 100 kPa
Conditions | 298.15 K | 308.15 K | 318.15 K
x1 = 0.0499 | 1.322 | 1.024 | 0.821
x1 = 0.0997 | 1.733 | 1.313 | 1.031
x1 = 0.1496 | 2.155 | 1.611 | 1.239
x1 = 0.1996 | 2.583 | 1.893 | 1.451
x1 = 0.2991 | 3.413 | 2.423 | 1.806
x1 = 0.3993 | 3.978 | 2.789 | 2.034
x1 = 0.499 | 4.032 | 2.846 | 2.094
x1 = 0.5989 | 3.653 | 2.644 | 1.983
x1 = 0.6996 | 3.103 | 2.278 | 1.772
x1 = 0.7996 | 2.561 | 1.974 | 1.579
x1 = 0.8493 | 2.337 | 1.829 | 1.491
x1 = 0.8988 | 2.136 | 1.673 | 1.388
x1 = 0.9496 | 1.96 | 1.557 | 1.309
